The values below come from patent EP1293213A1, “PREVENTIVES/REMEDIES FOR POSTOPERATIVE STRESS” (Japan Tobacco Inc., priority 2000, dated 2001).

The subject of one assay is corticosterone(CORT). Kind of assay: Experiment 3: Model of surgical stress in mouse (inhibitory action of rise in releasing of CORT). The format is in vivo. As to conditions: ddY male mice, intravenous, blood 30 minutes after incision. On the procedure:
Experiment 3: Model of surgical stress in mouse (Inhibitory action of rise in releasing of corticosterone(CORT))
ddY male mice(SLC, 7 weeks of age: weight 35 to 41g)were used. Mice were housed before use under controlled lighting condition (12hours light and 12hours dark cycle(lights on from 8:00 to 20:00) at 23±3 °C and humidity 55±15%, and maintained with basal diet and water ad labium. On the experimental day, after mice were weighted, diet was removed from mice just before experiments to eliminate the effects of food intake on experiments. Then, mice were moved to experimental room and habituated before experiment for more than 1 hour. On the day before experiment, mice were previously handled (by being fastened up for 10 to 15 seconds like the case of i.p. injections) to habituate to the stress caused by handling. Mice were divided into groups according to their weights on the experimental day.
Medicine applied and method of administration: […]
Mice were anesthetized by injections of pentobarbital Na (2.5mg/mouse i.p.) and after 20 minutes the solvent alone or the solution containing test sample to be evaluated were intravenously injected into the tail veins of mice at a dose of 10ml/Kg weight. […]
The concentration of CORT was determined by using Corticosterone Double Antibody (RIA measurement kit of CORT; ICN Pharmaceuticals, Inc.). […]

Assay [1] concerns the target T1, CRF type I(CRF-I) receptor (Homo sapiens, UniProt P34998).
T1 construct: expressed in transfected cells; membrane fraction
T1 sequence (P34998 24-415): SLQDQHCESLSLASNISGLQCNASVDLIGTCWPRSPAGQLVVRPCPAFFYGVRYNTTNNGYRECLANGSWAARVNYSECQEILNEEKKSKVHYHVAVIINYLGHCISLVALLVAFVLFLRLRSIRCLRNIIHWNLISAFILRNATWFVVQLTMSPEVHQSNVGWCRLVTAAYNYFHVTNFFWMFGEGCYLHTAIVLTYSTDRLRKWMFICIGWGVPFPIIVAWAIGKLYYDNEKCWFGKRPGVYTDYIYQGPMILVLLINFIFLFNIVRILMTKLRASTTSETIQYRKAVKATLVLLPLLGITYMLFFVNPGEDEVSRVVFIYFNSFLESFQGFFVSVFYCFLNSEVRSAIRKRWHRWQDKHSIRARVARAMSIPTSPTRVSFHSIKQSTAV
Kind of assay: in vitro Binding Assay using membrane fraction of recombinant cell (6EF2B) expressing CRF receptor gene (SPA method). As to conditions: 125I-Tyr0-human/rat CRF, membrane fraction of 6EF2B cells (derived from Hela cell), read-out: IC50(nM) [experiment 1]. Here is the method:
Experiment 1 : in vitro Binding Assay using membrane fraction of recombinant cell (6EF2B) with expression of CRF receptor gene
Preparation of membrane fraction:
Recombinant cells 6EF2B (derived from Hela cell), which express CRF type I(CRF-I) receptor gene stably, were cultivated in Eagle's MEM medium(10%FCS, 400ug/ml G418.1/100 penicillin/streptomycin). After cultivation, cells were suspended in 50mM Tris-HCl (pH7.2) solution containing 1mM EDTA and incubated at 25°C for 15 to 30 minutes. After that, every step was carried out at 4°C. Treated cells were suspended in 50mM Tris-HCl(pH7.2) containing 10% sucrose and homogenized by a Polytron(PT10-35 model). This step of homogenization was carried out at 25,000 rpm for 15 to 20 seconds and repeated twice or three times. In the course of this step the homogenates were inspected under a microscope. Homogenates were centrifuged at 600 x g for 5 minutes and the supernatant was centrifuged again at 40,000 x g for 30 minutes. The obtained pellet was resuspended in 50mM Tris-HCl(10mM MgCl2, 2mM EGTA) and the suspension was centrifuged again at 40,000 x g for 30minutes. The obtained pellet was used for further experiments as membrane fraction. The membrane fraction was diluted with 50mM Tris-HCl(10mM MgCl2, 2mM EGTA, 0.1%BSA, 100 kallikrein units/ml aprotinin, 0.1mM bacitracin, pH7.2) to have the concentration of 1mg/ml and then stored at -80°C. DC protein assay kit (produced by Bio-RAD) was used to determine the protein concentration of the membrane fraction.
Binding Assay using CRF-I receptor by means of SPA method:
Compounds to be evaluated were stored at the concentration of 10mM in DMSO. […] The assay buffer consisted of 50mM Tris-HCl (pH7.7) containing 100mM NaCl, 5mM KCl, 2mM CaCl2, 0.1% BSA, 0.1% bacitracin, 0.05% FCS and 5% horse serum. The reactions were carried out in 96-well Optiplate(Packard) in which to 50ul of the test substance solution, were added 50ul of WGA-beads & membrane fraction (50 to 100ug membrane fraction/10mg beads/ml) pre-coupled by stirring (rotating with 10rpm) at room temperature for 2 hours on the day of experiment, and 100ul of 0.4nM ^125I-Tyr^0-human/rat CRF(NEX-216, Dupont NEN), to be made up 200ul as total volume, and the mixture was incubated at 25°C for 3 hours. By the way, the step of pre-coupling was carried out by using beads solution (20mg/ml) suspended in 50mM Tris-HCl buffer solution (pH7.2) and after stirring beads were washed twice with Tris-HCl buffer and once with assay buffer by centrifugation (3000 rpm, 5 minutes). In order to measure total binding and non-specific binding activity, assay buffer solution and 1uM(final conc.) cold human /rat CRF(C-3042; SIGMA) solution were used respectively in place of test substance solution. After incubation, the mixture was centrifuged at 23 °C, 2,500 rpm for 5 minutes and the scintillation was counted with Top Count (Packard). An influence of color quench was corrected by standard curve made by using tartrazine as a quencher. Evaluation of samples was carried out several times.

Assay [2] deals with adrenocorticotropic hormone(ACTH). Put plainly: Experiment 2: Model of surgical stress in mouse (inhibitory action of rise in releasing of ACTH). The format is in vivo. As to conditions: ddY male mice, intravenous, surgical stress (abdominal incision, bowel draped externally). On the procedure: Experiment 2: Model of surgical stress in mouse (Inhibitory action of rise in releasing of adrenocorticotropic hormone(ACTH))
ddY male mice(SLC, 7 to 8 weeks of age: weight 34 to 42g)were used for experiments. Mice were housed before use under controlled lighting condition (12hours light and 12hours dark cycle(lights on from 8:00 to 20:00) at 23±3 °C and 55±15% humidity, and maintained with basal diet and water ad labium. On the experimental day, mice were moved to experimental room and habituated before experiment for more than 1 hour. On the day before experiment, mice were previously handled (by being fastened up for 10 to 15 seconds like the case of i.p. injections) to habituate to the stress caused by handling.
Medicine and administration:
Test compound to be evaluated was dissolved in and diluted with physiological saline(Otsuka), 5% mannitol or 0.1N NaHCO3/saline. Then the test sample solution was given into veins of mice at a dose of 10ml/Kg body weight. The same solvent alone mentioned above was given into veins of control mice group at a dose of 10ml/Kg weight.
Mice were anesthetized by injection of pentobarbital Na (2.5mg/mouse i.p.) and after 15 minutes the solvent alone or the solution containing test sample to be evaluated were intravenously injected on the tails of mice at a dose of 10ml/ Kg weight of mouse. After more 10 minutes a midline incision was made in the abdomen and in two minutes bowel was draped externally. Then 2.5 minutes after incision 0.6ml of blood samples were collected from main vein abdominalis for 1 minute gradually by using prechilled syringes(needle size 25G), which were wetted with 100mM EDTA solution. Control mice not subjected to surgical stress were decapitated and blood samples were collected at 13 to 14 minutes after medication of solvent alone and to them added 20ul of 100mM EDTA. Blood samples collected were put into siliconized tubes and centrifuged at 10,000rpm and 4°C for 5 minutes. The concentration of ACTH in supernatant was determined by IRMA method using Allegro ACTH kit (Nihon Medi+Physics Co.,Ltd.). […]

The structures appear in SMILES notation.

Consider `CCc1cc(S(=O)(=O)N(CC)CC)cc(NC(=O)c2cc(Cl)c([O-])c(Cl)c2)c1OC.[K+]` [Example 7, potassium 2,6-dichloro-4-(N-(3-ethyl-5-diethylsulfamoyl-2-methoxyphenyl)carbamoyl)phenoxide], for which the “Inhibitory action on CORT release (mg/kg) [experiment 3]” value in the assay on corticosterone(CORT) was 10 to 30 mg/kg. Also, the concentration for half-maximal inhibition (IC50) in assay [1] is 263 nM. Further, the “Inhibitory action on ACTH release (mg/kg) [experiment 2]” value in assay [2] fell in the range of 10 to 30 mg/kg.
